Laboratory results published in patent publication US20090304692A1, “TRIAZINE COMPOUNDS AS PI3 KINASE AND MTOR INHIBITORS” (Wyeth, priority 2008, published 2009).
Several values for one entry are separate records, joined by “and”; a condition that tells them apart may be missing. Equal values may be shown once. Read-outs that look alike come from different tables or passages of the source.

Experiments:
PI3K-α = PI3K-α (Homo sapiens, UniProt P42336); test: PI3K-alpha fluorescence polarization assay; conditions: read-out: IC50 PI3Kα
Chain of PI3K-α (P42336 whole entry, species assumed): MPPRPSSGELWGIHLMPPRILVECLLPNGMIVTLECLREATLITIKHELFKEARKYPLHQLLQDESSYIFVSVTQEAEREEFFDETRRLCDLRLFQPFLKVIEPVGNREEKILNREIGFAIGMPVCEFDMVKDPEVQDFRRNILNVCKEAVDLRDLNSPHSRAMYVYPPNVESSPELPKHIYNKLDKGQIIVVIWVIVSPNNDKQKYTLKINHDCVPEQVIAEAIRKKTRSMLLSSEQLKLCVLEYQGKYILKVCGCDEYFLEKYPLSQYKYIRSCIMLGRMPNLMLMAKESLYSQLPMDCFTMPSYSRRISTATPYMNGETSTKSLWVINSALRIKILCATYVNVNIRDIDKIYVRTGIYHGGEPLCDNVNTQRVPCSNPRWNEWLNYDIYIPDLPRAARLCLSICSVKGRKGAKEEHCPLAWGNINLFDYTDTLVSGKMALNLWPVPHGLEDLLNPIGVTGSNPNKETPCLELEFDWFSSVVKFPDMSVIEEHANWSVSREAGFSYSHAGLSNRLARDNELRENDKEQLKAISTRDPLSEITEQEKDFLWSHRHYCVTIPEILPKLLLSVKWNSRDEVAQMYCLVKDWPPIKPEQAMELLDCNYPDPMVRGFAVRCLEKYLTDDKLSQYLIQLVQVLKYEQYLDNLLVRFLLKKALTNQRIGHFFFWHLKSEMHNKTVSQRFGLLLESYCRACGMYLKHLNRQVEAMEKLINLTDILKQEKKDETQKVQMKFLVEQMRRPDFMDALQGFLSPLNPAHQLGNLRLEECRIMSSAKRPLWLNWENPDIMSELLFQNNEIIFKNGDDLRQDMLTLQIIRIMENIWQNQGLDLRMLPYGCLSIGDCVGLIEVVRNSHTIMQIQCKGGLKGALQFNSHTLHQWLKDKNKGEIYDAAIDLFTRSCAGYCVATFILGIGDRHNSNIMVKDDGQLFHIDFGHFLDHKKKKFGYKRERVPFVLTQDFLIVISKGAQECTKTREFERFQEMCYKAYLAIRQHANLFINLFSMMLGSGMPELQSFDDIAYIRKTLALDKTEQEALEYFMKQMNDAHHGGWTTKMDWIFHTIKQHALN
Chain of PI3K-α (P27986 whole entry partner, species assumed): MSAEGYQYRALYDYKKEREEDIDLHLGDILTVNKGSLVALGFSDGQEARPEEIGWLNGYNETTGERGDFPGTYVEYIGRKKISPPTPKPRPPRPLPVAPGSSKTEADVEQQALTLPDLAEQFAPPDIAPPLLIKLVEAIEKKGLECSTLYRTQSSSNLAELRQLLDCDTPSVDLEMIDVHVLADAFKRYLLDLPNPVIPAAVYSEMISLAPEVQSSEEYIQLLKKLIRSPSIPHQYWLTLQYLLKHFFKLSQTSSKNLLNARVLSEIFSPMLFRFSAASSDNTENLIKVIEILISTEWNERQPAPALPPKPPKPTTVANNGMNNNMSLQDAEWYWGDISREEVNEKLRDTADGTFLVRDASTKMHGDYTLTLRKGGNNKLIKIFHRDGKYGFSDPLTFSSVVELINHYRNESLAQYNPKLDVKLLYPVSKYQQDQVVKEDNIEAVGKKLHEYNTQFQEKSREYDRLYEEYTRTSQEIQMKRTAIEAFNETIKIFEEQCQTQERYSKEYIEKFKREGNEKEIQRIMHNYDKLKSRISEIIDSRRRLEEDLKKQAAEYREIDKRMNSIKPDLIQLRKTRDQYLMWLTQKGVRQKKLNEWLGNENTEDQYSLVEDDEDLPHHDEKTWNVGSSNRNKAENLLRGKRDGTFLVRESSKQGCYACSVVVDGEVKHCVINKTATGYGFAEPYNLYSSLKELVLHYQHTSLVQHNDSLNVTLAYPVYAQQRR

PI3K-γ = PI3K-γ (Homo sapiens, UniProt P48736); test: PI3K-gamma fluorescence polarization assay; conditions: read-out: IC50 PI3Kγ
Chain of PI3K-γ (P48736 whole entry, species assumed): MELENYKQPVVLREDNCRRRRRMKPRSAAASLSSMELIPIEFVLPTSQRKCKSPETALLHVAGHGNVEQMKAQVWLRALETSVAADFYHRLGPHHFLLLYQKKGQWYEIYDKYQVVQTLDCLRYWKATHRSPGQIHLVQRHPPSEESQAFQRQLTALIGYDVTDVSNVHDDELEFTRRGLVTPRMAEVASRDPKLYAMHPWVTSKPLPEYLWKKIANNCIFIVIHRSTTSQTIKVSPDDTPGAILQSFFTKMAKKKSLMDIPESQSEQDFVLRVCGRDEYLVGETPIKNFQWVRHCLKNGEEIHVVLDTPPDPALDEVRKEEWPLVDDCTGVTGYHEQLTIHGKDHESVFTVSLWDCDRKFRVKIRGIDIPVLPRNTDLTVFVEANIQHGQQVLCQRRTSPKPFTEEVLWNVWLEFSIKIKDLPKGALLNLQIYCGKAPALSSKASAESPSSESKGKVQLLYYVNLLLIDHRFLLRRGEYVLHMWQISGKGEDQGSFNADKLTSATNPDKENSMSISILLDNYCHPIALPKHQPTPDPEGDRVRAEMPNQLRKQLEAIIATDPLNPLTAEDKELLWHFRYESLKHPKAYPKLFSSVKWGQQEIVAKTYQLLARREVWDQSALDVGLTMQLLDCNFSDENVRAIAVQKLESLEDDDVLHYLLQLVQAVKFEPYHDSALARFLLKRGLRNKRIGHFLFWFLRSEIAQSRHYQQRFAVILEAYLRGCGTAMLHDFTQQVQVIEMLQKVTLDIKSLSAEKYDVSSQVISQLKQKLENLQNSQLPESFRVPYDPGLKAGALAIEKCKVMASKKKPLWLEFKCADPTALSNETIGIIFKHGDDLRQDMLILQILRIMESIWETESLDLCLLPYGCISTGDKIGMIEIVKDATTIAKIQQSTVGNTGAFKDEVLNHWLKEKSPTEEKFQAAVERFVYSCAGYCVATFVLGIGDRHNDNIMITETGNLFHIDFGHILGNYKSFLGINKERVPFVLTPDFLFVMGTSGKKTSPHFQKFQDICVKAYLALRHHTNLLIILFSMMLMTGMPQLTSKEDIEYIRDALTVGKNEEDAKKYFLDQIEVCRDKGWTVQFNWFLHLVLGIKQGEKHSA

[1] = tested on: human prostate LNCap tumor cell line; test: In vitro cell culture growth assay (MTS), LNCap; conditions: Homo sapiens, LNCaP, 72 h, read-out: IC50 LNCap
Human mTOR (FLAG-TOR) = Human mTOR (FLAG-TOR) (Homo sapiens, UniProt P42345); test: mTOR kinase assay (DELFIA format, purified enzyme); assay type: biochemical; conditions: read-out: IC50 mTOR
Chain of Human mTOR (FLAG-TOR) (P42345 1360-2549 limits assumed): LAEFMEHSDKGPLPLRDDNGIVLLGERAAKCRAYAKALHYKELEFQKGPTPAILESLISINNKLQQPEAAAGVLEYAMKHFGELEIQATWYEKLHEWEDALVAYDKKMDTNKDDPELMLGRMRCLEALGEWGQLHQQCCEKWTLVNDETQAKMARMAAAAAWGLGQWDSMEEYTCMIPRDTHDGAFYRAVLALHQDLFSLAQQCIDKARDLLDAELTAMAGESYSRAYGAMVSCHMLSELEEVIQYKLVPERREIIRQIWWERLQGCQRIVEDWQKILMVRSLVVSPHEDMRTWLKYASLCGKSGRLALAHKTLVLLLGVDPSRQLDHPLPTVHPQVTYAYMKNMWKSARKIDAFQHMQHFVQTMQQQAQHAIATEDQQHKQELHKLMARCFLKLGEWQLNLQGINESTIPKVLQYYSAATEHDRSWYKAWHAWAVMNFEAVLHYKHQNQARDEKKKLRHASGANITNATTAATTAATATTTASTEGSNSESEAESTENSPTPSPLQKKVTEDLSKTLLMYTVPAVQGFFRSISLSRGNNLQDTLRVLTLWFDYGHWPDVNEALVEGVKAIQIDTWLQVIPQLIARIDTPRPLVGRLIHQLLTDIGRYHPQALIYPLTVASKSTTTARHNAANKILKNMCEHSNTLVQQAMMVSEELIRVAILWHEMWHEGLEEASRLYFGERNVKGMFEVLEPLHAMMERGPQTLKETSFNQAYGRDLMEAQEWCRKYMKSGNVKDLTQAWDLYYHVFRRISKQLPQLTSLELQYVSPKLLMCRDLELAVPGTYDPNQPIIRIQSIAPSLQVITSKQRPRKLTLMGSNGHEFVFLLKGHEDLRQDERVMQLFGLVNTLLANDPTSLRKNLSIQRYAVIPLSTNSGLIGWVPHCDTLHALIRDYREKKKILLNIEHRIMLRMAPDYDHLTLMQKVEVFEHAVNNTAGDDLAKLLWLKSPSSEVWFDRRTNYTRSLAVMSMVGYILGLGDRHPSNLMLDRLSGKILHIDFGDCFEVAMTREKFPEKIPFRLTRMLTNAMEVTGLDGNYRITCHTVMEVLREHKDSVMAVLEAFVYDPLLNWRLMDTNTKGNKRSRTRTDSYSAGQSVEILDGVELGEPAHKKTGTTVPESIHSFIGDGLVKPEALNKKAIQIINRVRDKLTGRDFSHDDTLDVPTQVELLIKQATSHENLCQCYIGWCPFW

[2] = tested on: human breast MDA-MB-361 tumor cell line; test: In vitro cell culture growth assay (MTS), MDA-MB-361; assay type: cell-based; conditions: Homo sapiens, three days after drug treatment, read-out: IC50 MDA-MB-361
[3] = tested on: human prostate PC3-mm2 tumor cell line; test: In vitro cell culture growth assay (MTS), PC3-mm2; assay type: cell-based; conditions: Homo sapiens, PC3MM2, 72 h, three days after drug treatment, read-out: IC50 PC3-mm2
[4] = MDA-MB-361, 72 h, MTS cell growth assay
[5] = MDA-MB-361, 72 h, MTS cell growth assay, MDA-MB-361 cells
[6] = MTS cell growth assay, PC3-mm2 cells
[7] = 72 h, MTS cell growth assay, MDA-MB-361 cells

SMILES | IC50 (PI3K-α) | IC50 (PI3K-γ) | IC50 [1] | IC50 (Human mTOR (FLAG-TOR)) | IC50 [3, 6] | other results
O=C(Nc1ccncc1)Nc1ccc(-c2nc(N3C4CCC3COC4)nc(N3[C@H](CO)CC[C@@H]3CO)n2)cc1 [Example 347, 1-(4-{4-[(2R,5S)-2,5-bis(hydroxymethyl)pyrrolidin-1-yl]-6-(3-oxa-8-azabicyclo[3.2.1]oct-8-yl)-1,3,5-triazin-2-yl}phenyl)-3-pyridin-4-ylurea] | 796 nM | 8440 nM | 9 nM | – | – | –
CC(C)N1CCN(C(=O)c2ccc(NC(=O)Nc3ccc(-c4nc(C5CCOCC5)nc(N5C6CCC5COC6)n4)cc3)cc2)CC1 [Example 439, 1-(4-(4-(3-oxa-8-azabicyclo[3.2.1]octan-8-yl)-6-(tetrahydro-2H-pyran-4-yl)-1,3,5-triazin-2-yl)phenyl)-3-(4-(4-isopropylpiperazine-1-carbonyl)phenyl)urea] | – | – | 1 nM | – | – | –
CN1CCN(c2ccc(Nc3nc(-c4ccc(NC(=O)Nc5ccc(C(N)=O)cc5)cc4)nc(N4CC5CCC(C4)O5)n3)cc2)CC1 [Example 318, 4-[({4-[4-{[4-(4-methylpiperazin-1-yl)phenyl]amino}-6-(8-oxa-3-azabicyclo[3.2.1]oct-3-yl)-1,3,5-triazin-2-yl]phenyl}carbamoyl)amino]benzamide] | 15.5 nM | 679 nM | 1000 nM | – | – | IC50 (PI3K-α; listed as 334): 16 nM; IC50 (PI3K-γ; listed as 334): 680 nM
CC(C)N1CCN(c2ccc(NC(=O)Nc3ccc(-c4nc(C5CCOCC5)nc(N5C6CCC5COC6)n4)cc3)cc2)CC1 [Example 435, 1-(4-(4-(3-oxa-8-azabicyclo[3.2.1]octan-8-yl)-6-(tetrahydro-2H-pyran-4-yl)-1,3,5-triazin-2-yl)phenyl)-3-(4-(4-isopropylpiperazin-1-yl)phenyl)urea] | – | 4600 nM | 4 nM | – | – | –
CN1CCN(c2ccc(NC(=O)Nc3ccc(-c4nc(N5C6COCC5COC6)nc(N5C6COCC5COC6)n4)cc3)cc2)CC1 [Example 823, 1-[4-(4,6-di-3,7-dioxa-9-azabicyclo[3.3.1]non-9-yl-1,3,5-triazin-2-yl)phenyl]-3-[4-(4-methylpiperazin-1-yl)phenyl]urea] | 661 nM | 2790 nM | 55 nM | – | – | –
CNC(=O)Nc1ccc(-c2nc(N3CC4CCC(C3)O4)nc(N3CC4CNCC(C3)O4)n2)cc1 [Example 234, 1-methyl-3-{4-[4-(8-oxa-3-azabicyclo[3.2.1]oct-3-yl)-6-(9-oxa-3,7-diazabicyclo[3.3.1]non-3-yl)-1,3,5-triazin-2-yl]phenyl}urea] | 4530 nM | 9530 nM | 10000 nM | – | – | –
O=C(Nc1ccc(-c2nc(N3CC4CCC(C3)O4)nc(N3CC4CNCC(C3)O4)n2)cc1)Nc1cccnc1 [Example 235, 1-{4-[4-(8-oxa-3-azabicyclo[3.2.1]oct-3-yl)-6-(9-oxa-3,7-diazabicyclo[3.3.1]non-3-yl)-1,3,5-triazin-2-yl]phenyl}-3-pyridin-3-ylurea] | 3210 nM | 4110 nM | 7900 nM | – | – | –
O=C(Nc1ccncc1)Nc1ccc(-c2nc(OCCN3CCCCC3)nc(N3CC4CCC(C3)O4)n2)cc1 [Example 144, 1-{4-[4-(8-oxa-3-azabicyclo[3.2.1]oct-3-yl)-6-(2-piperidin-1-ylethoxy)-1,3,5-triazin-2-yl]phenyl}-3-pyridin-4-ylurea] | – | – | 1500 nM | – | – | –
CC(O)c1ccc(NC(=O)Nc2ccc(-c3nc(N4CCOCC4)nc(N4C[C@H]5C[C@@H]4CN5C(=O)OC(C)(C)C)n3)cc2)cc1 (stereo partly drawn) [Example 302, tert-butyl-(1R,4R)-5-{4-[4-({[4-(1-hydroxyethyl)phenyl]carbamoyl}amino)phenyl]-6-morpholin-4-yl-1,3,5-triazin-2-yl}-2,5-diazabicyclo[2.2.1]heptane-2-carboxylate] | 35 nM | 263 nM | – | 36 nM | – | IC50 [2, 4]: 299 nM; IC50 ([3]; MTS cell growth assay): 539 nM
CC(C)c1nc(-c2ccc(NC(=O)Nc3ccc(C(=O)N4CCN(C(C)C)CC4)cc3)cc2)nc(N2CCOCC2)n1 [Example 491, 1-{4-[4-(1-methylethyl)-6-morpholin-4-yl-1,3,5-triazin-2-yl]phenyl}-3-(4-{[4-(1-methylethyl)piperazin-1-yl]carbonyl}phenyl)urea] | 3.5 nM | 17 nM | – | 1.1 nM | 35 nM | IC50 [2, 5]: 8 nM
O=C(Nc1ccc(C(=O)NCCN2CCCC2)cc1)Nc1ccc(-c2nc(C3CCOCC3)nc(N3CCOCC3)n2)cc1 [Example 513, 4-[({4-[4-morpholin-4-yl-6-(tetrahydro-2H-pyran-4-yl)-1,3,5-triazin-2-yl]phenyl}carbamoyl)amino]-N-(2-pyrrolidin-1-ylethyl)benzamide] | < 2.4 nM | 12 nM | – | 0.12 nM | 13 nM | IC50 [2, 7]: 2 nM
CC(C)NCCCc1nc(-c2ccc(NC(=O)Nc3ccncc3)cc2)nc(N2CCOCC2)n1 [Example 275, 1-[4-(4-{3-[(1-methylethyl)amino]propyl}-6-morpholin-4-yl-1,3,5-triazin-2-yl)phenyl]-3-pyridin-4-ylurea] | 46 nM | 711 nM | – | 70 nM and 69 nM | 4310 nM | IC50 [2, 4]: 3100 nM; IC50 ([3]; MTS cell growth assay): 4310 nM; IC50 (PI3K-α; listed as 732): 44 nM; IC50 (PI3K-γ; listed as 732): 478 nM
CN(C)C1CCN(C(=O)c2ccc(NC(=O)Nc3ccc(-c4nc(N5CCOCC5)nc(N5C6COCC5COC6)n4)cc3)cc2)CC1 [Example 767, 1-(4-{[4-(dimethylamino)piperidin-1-yl]carbonyl}phenyl)-3-{4-[4-(3,7-dioxa-9-azabicyclo[3.3.1]non-9-yl)-6-morpholin-4-yl-1,3,5-triazin-2-yl]phenyl}urea] | 2.1 nM | 17 nM | – | 0.2 nM | 13 nM | IC50 [2, 5]: 5 nM
CC1CN(C(=O)c2ccc(NC(=O)Nc3ccc(-c4nc(N5CCOCC5)nc(N5C6CCC5COC6)n4)cc3)cc2)CC(C)N1 (stereo not drawn) [Example 703, 1-{4-[(3,5-dimethylpiperazin-1-yl)carbonyl]phenyl}-3-{4-[4-morpholin-4-yl-6-(3-oxa-8-azabicyclo[3.2.1]oct-8-yl)-1,3,5-triazin-2-yl]phenyl}urea] | 1.5 nM | 23.5 nM | – | 0.51 nM | 13 nM | IC50 [2, 5]: < 3 nM
CN1CCCC1CCNC(=O)c1ccc(NC(=O)Nc2ccc(-c3nc(N4CCOCC4)nc(N4C5CCCC4COC5)n3)cc2)cc1 (stereo not drawn) [Example 801, N-[2-(1-methylpyrrolidin-2-yl)ethyl]-4-[({4-[4-morpholin-4-yl-6-(3-oxa-9-azabicyclo[3.3.1]non-9-yl)-1,3,5-triazin-2-yl]phenyl}carbamoyl)amino]benzamide] | 5 nM | 38 nM | – | 0.455 nM | – | IC50 ([2]; 72 h, MDA-MB-361 cells, MTS): 3 nM; IC50 ([3]; PC3-mm2 cells, MTS): 32 nM
CCN1CCN(C(=O)c2ccc(NC(=O)Nc3ccc(-c4nc(N5CCCCC5)nc(N5CCOCC5)n4)cc3)cc2)CC1 [Example 596, 1-{4-[(4-ethylpiperazin-1-yl)carbonyl]phenyl}-3-[4-(4-morpholin-4-yl-6-piperidin-1-yl-1,3,5-triazin-2-yl)phenyl]urea] | 5 nM | 40.5 nM | – | 13 nM | 155 nM | IC50 [2, 5]: 26 nM
O=C(Nc1ccc(C(=O)O)cc1)Nc1ccc(-c2nc(N3CCOCC3)nc(N3C4COCC3COC4)n2)cc1 [Example 771, 4-[({4-[4-(3,7-dioxa-9-azabicyclo[3.3.1]non-9-yl)-6-morpholin-4-yl-1,3,5-triazin-2-yl]phenyl}carbamoyl)amino]benzoic acid] | 19.5 nM | 66 nM | – | 0.215 nM | > 1000 nM | IC50 [2, 7]: > 1000 nM
CC(C)(C)OC(=O)N1CC(Nc2nc(-c3ccc(NC(=O)Nc4cccnc4)cc3)nc(N3CCOCC3)n2)C1 [Example 15, tert-butyl 3-[(4-morpholin-4-yl-6-{4-[(pyridine-3-ylcarbamoyl)amino]phenyl}-1,3,5-triazin-2-yl)amino]azetidine-1-carboxylate] | 23 nM | 177 nM | – | 2.5 nM | – | IC50 [2, 4]: 255 nM; IC50 ([3]; MTS cell growth assay): 328 nM
CC(C)CN1CCN(C(=O)c2ccc(NC(=O)Nc3ccc(-c4nc(N5CCOC[C@@H]5C)nc(N5CCOC[C@@H]5C)n4)cc3)cc2)CC1 [Example 631, 1-(4-{4,6-bis[(3S)-3-methylmorpholin-4-yl]-1,3,5-triazin-2-yl}phenyl)-3-(4-{[4-(2-methylpropyl)piperazin-1-yl]carbonyl}phenyl)urea] | 28 nM | 133 nM | – | 4 nM | 120 nM | IC50 [2, 7]: 28 nM
O=C(Nc1ccc(-c2nc(N3C4CCC3COC4)nc(N3C4CCC3COC4)n2)cc1)N1CCNCC1 [Example 286, N-[4-(4,6-di-3-oxa-8-azabicyclo[3.2.1]oct-8-yl-1,3,5-triazin-2-yl)phenyl]piperazine-1-carboxamide] | 4200 nM | – | 32000 nM | – | – | –
